Test results published in ChEMBL document CHEMBL1129211, “Design and synthesis of sialyl Lex mimetics based on carbocyclic scaffolds derived from () quinic acid” (Bioorg Med Chem Lett, 1997).

Experiments:
[1] = biological target: T1, E-selectin (Homo sapiens) (UniProt P16581); assay: Tested for binding activity against Selectin E of the compound; inactive
T1 sequence (whole entry): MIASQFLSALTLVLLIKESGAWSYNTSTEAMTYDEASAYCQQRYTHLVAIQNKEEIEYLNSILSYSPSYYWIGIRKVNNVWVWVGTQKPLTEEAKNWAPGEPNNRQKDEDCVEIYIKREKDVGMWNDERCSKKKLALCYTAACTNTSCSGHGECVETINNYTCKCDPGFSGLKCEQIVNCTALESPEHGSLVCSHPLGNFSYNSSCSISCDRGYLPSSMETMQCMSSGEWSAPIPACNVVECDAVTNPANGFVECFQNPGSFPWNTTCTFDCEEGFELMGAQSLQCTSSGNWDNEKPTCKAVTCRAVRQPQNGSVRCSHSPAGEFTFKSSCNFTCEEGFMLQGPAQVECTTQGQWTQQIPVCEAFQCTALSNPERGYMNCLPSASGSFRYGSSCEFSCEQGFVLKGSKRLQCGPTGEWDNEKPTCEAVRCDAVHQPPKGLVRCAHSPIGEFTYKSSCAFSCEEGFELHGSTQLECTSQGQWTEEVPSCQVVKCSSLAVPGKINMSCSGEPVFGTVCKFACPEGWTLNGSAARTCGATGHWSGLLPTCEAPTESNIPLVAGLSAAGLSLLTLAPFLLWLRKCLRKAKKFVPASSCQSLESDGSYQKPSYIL

[2] = biological target: T1, E-selectin (Homo sapiens); assay: Tested for binding activity against Selectin E of the compound

Activity [1] | Activity [2] | Compound
> 10 mM | – | C[C@@H]1O[C@@H](O[C@@H]2[C@@H](O)C[C@@](O)(CO)C[C@H]2O[C@@H]2O[C@@H](CO)[C@H](O)[C@H](OCC(=O)O)[C@@H]2O)[C@@H](O)[C@@H](O)[C@@H]1O
> 10 mM | – | CC1OC(OC(C)(C)COCC2CC(O)C(O)C(OCC(=O)O)C2)C(O)C(O)C1O (centres undefined)
– | 1 mM | CC(=O)N[C@H]1[C@H]([C@H](O)[C@H](O)CO)O[C@@](O[C@@H]2[C@H](O)[C@H](O[C@@H]3C[C@](O)(CO)C[C@H](O)[C@H]3O[C@@H]3O[C@@H](C)[C@@H](O)[C@H](O)[C@@H]3O)O[C@@H](CO)[C@@H]2O)(C(=O)O)C[C@H]1O
> 10 mM | – | CC1OC(OC(C)(C)COCC2(O)CCC(O)C(OCC(=O)O)C2O)C(O)C(O)C1O (centres undefined)
